Assay results: patent US8378104B2 (OSI Pharmaceuticals, LLC, priority 2010, dated 2013)
Structures can show the parent of a compound that is named as a salt.

Columns and labels:
TAK1-TAB1 fusion protein = molecular target: T1, TAK1-TAB1 fusion protein (Homo sapiens, UniProt O43318); assay: TAK1 biochemical assay (AlphaScreen, GST-MAP2K7 substrate); conditions: TAK1-TAB1 fusion protein, GST-MAP2K7 substrate; read-out: mean TAK1 IC50 (Col. A)
T1 construct: purchased Carna
T1 sequence (O43318 with tags, fused parts or gaps limits assumed): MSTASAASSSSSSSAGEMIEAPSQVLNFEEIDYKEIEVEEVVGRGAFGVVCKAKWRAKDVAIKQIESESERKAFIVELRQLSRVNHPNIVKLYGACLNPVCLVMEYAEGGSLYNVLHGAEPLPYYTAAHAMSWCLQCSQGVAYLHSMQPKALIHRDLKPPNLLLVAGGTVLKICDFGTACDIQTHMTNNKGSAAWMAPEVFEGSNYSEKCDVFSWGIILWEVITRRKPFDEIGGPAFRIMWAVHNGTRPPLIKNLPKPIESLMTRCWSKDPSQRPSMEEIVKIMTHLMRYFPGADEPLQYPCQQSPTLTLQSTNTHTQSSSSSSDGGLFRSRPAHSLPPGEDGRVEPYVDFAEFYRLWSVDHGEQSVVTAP

pJNK in HCT-116 cells = assay: Phospho-JNK (Thr183/Tyr185) Meso Scale ELISA assay, TNFα-stimulated HCT-116 cells; type: cell-based; conditions: Homo sapiens, read-out: mean HCT-116 pJNK ELISA IC50 (Col. B)
Method: Detailed below are ELISA assays for pJNK and p38, and a TAK1 biochemical assay. […] In Table 1, Col.
Phospho-JNK (Thr183/Tyr185) Meso Scale ELISA Assay
• 1. Plate HCT-116 cells at 25,000 per well in 100 uL in 96 well clear dishes in normal growth medium. Day 2: • 1. Aspirate medium and replace with 90 μl reduced serum growth medium (1% FCS), incubate for 2 hours at 37° C. • 2. Make drugs at 10× in reduced serum medium and add 10 uL per well. • 3. Incubate at 37° C. for 4 hrs. • 4. Bring capture plates to room temperature. • 5. Block with 150 μl Blocking Solution (provided with kit) (600 mg Blocker A into 20 mL 1× Wash Buffer per plate) at room temperature with shaking. • 6. Wash plates 4× with 200 μl 1× wash buffer (10× provided with kit) before transferring lysates. • 7. Dilute TNFα to […] in reduced serum medium (this makes a 10× working stock). • 8. Add 10 μl TNFα to all wells except negative control wells, final concentration is 10 ng/mL. • 9. Incubate at 37° C. for 10 minutes. • 10. Remove medium by flicking into sink • 11. Wash cells with 100 uL ice cold PBS. • 12. Remove PBS by flicking into sink and patting on paper towels. • 13. Lyse cells in 50 μl ice cold 1× Complete Lysis Buffer plus Phosphatase and Protease inhibitors (all provided with kit) (10 mL Tris Lysis Buffer+200 μl Protease inhibitor solution+100 μl Phosphatase inhibitor I+100 μl Phosphatase inhibitor II). • 14. Incubate with shaking at 4° C. for 30 minutes. • 15. Transfer 45 μl to capture plate, cover with adhesive cover, and incubate at 4° C. over night with shaking. • Day 3: • 1. Wash plates 4× with 200 μl 1× wash buffer (10× provided with kit). • 2. […] Incubate at room temperature with shaking for 1 hour. • 4. Wash 4× with 200 μl 1× Wash Buffer. • 5. […] Read on Sector Imager. Phospho-p38 Meso Scale ELISA Assay Day 1: • 1. Plate HCT-116 cells at 25,000 per well in 100 uL in 96 well clear dishes in normal growth medium. zday 2: • 1. Aspirate medium and replace with 90 μl reduced serum growth medium (1% FCS), incubate for 2 hours at 37° C. • 2. Make drugs at 10× in reduced serum medium and add 10 uL per well. • 3. Incubate at 37° C. for 4 hrs. • 4. Bring capture plates to room temperature. • 5. Block with 150 μl Blocking Solution (provided with kit) (600 mg Blocker A into 20 mL 1× Wash Buffer per plate) at room temperature with shaking. • 6. Wash plates 4× with 200 μl 1× wash buffer (10× provided with kit) before transferring lysates. • 7. Dilute TNFα to […] in reduced serum medium (this makes a 10× working stock). • 8. Add 10 μl TNFα to all wells except negative control wells, final concentration is 10 ng/mL. • 9. Incubate at 37° C. for 10 minutes. • 10. Remove medium by flicking into sink • 11. Wash cells with 100 uL ice cold PBS. • 12. Remove PBS by flicking into sink and patting on paper towels. • 13. Lyse cells in 50 μl ice cold 1× Complete Lysis Buffer plus phosphatase and protease inhibitors (all provided with kit) (10 mL Tris Lysis Buffer+200 μl Protease inhibitor solution+100 μl Phosphatase inhibitor I+100 μl Phosphatase inhibitor II). • 14. Incubate with shaking at 4° C. for 30 minutes. • 15. Dilute lysates before transferring to capture plate with 100 μl Complete p38 Lysate • Dilution Buffer (provided with kit) (10 mL of Diluent 20±200 μl Protease inhibitor solution+100 μl Phosphatase inhibitor I+100 μl Phosphatase inhibitor II). • 16. Transfer 50 μl of diluted lysates to capture plate, cover with adhesive cover, and incubate at 4° C. over night with shaking. Day 3: • 1. Wash plates 4× with 200 μl 1× wash buffer (10× provided with kit). • 2. […] Incubate at room temperature with shaking for 1 hour. • 4. Wash 4× with 200 μl 1× Wash Buffer. • 5. […] Read on Sector Imager. TAK1 Biochemical Assay

Structure (SMILES) | IC50 (TAK1-TAB1 fusion protein) [nM] | IC50 (pJNK in HCT-116 cells) [nM]
Nc1ncc(-c2cnn([C@@H]3C[C@H]4CC[C@@H](C3)N4C=O)c2)c2cc(-c3cccc4cnsc34)oc12 [Example 326, (3-exo)-3-{4-[7-amino-2-(1,2-benzisothiazol-7-yl)furo[2,3-c]pyridin-4-yl]-1H-pyrazol-1-yl}-8-azabicyclo[3.2.1]octane-8-carbaldehyde] | < 100 | < 100
Nc1ncc(-c2cnn(C3CCN(C(=O)Nc4cccc5c4CCCC5)CC3)c2)c2cc(-c3cccc4cnsc34)oc12 [Example 340, 4-[4-(7-amino-2-benzo[d]isothiazol-7-yl-furo[2,3-c]pyridin-4-yl)-pyrazol-1-yl]-piperidine-1-carboxylic acid (5,6,7,8-tetrahydro-naphthalen-1-yl)-amide] | 100 to 1000 | 100 to 1000
CCNc1nc2cccc(-c3cc4c(-c5cnn(C6CCN(C(C)=O)CC6)c5)cnc(N)c4o3)c2s1 [Example 354, 1-[4-(4-{7-amino-2-[2-(ethylamino)-1,3-benzothiazol-7-yl]furo[2,3-d]pyridin-4-yl}-1H-pyrazol-1-yl)piperidin-1-yl]ethanone trifluoroacetate] | < 100 | < 100
[2H]C([2H])([2H])Nc1ncc(-c2cnn([C@H]3CC[C@H](O)CC3)c2)c2cc(-c3cccc4nnsc34)oc12 [Example 361, trans-4-(4-{2-(1,2,3-benzothiadiazol-7-yl)-7-[(^2H3)methylamino]furo[2,3-c]pyridin-4-yl}-1H-pyrazol-1-yl)cyclohexanol] | < 100 | < 100
Nc1ncc(-c2cnn([C@@H]3CCC[C@@H](O)C3)c2)c2cc(-c3cccc4cnsc34)oc12 (relative stereo) [Example 313, trans-3-[4-(7-amino-2-benzo[d]isothiazol-7-yl-furo[2,3-c]pyridin-4-yl)-pyrazol-1-yl]-cyclohexanol] | < 100 | 100 to 1000
CC(=O)N1CCC(n2cc(-c3cnc(N)c4oc(-c5cccc6sncc56)cc34)cn2)CC1 [Example 241, 1-(4-{4-[7-amino-2-(1,2-benzothiazol-4-yl)furo[2,3-c]pyridin-4-yl]-1H-pyrazol-1-yl}piperidin-1-yl)ethanone diformate Salt] | < 100 | < 100
CC(C)N1[C@@H]2CC[C@H]1C[C@H](n1cc(-c3cnc(N)c4oc(-c5csc6cnccc56)cc34)cn1)C2 [Example 329, 4-{1-[(3-exo)-8-(propan-2-yl)-8-azabicyclo[3.2.1]oct-3-yl]-1H-pyrazol-4-yl}-2-(thieno[2,3-c]pyridin-3-yl)furo[2,3-c]pyridin-7-amine] | < 100 | 100 to 1000
CNc1ncc(-c2cnn(C3CCN(C(C)=O)CC3)c2)c2cc(-c3cccc4nnsc34)oc12 [Example 278, 1-(4-{4-[2-(1,2,3-benzothiadiazol-7-yl)-7-(methylamino)furo[2,3-c]pyridin-4-yl]-1H-pyrazol-1-yl}piperidin-1-yl)ethanone] | < 100 | < 100
CC(=O)N1CCC(n2cc(-c3cnc(N)c4oc(-c5c6ccncc6nn5C)cc34)cn2)CC1 [Example 364, 1-(4-{4-[7-amino-2-(2-methyl-2H-pyrazolo[3,4-c]pyridin-3-yl)furo[2,3-c]pyridin-4-yl]-1H-pyrazol-1-yl}piperidin-1-yl)ethanone trifluoroacetic Acid Salt] | 100 to 1000 | 1000 to 10000
Nc1ncc(-c2cnn([C@@H]3C[C@H]4CC[C@@H](C3)N4)c2)c2cc(-c3cccc4cnsc34)oc12 [Example 321, 4-{1-[(3-exo)-8-azabicyclo[3.2.1]oct-3-yl]-1H-pyrazol-4-yl}-2-(1,2-benzisothiazol-7-yl)furo[2,3-c]pyridin-7-amine] | < 100 | 100 to 1000
Nc1ncc(-c2cnn([C@H]3CC[C@H](O)CC3)c2)c2cc(-c3c(F)ccc4nnsc34)oc12 [Example 272, trans-4-{4-[7-amino-2-(6-fluoro-1,2,3-benzothiadiazol-7-yl)furo[2,3-c]pyridin-4-yl]-1H-pyrazol-1-yl}cyclohexanol diformate salt] | < 100 | < 100
CNc1nc2cccc(-c3cc4c(-c5cnn(C6CCN(C(C)=O)CC6)c5)cnc(N)c4o3)c2s1 [Example 350, 1-[4-(4-{7-amino-2-[2-(methylamino)-1,3-benzothiazol-7-yl]furo[2,3-d]pyridin-4-yl}-1H-pyrazol-1-yl)piperidin-1-yl]ethanone trifluoroacetate] | < 100 | < 100
CC(=O)N1CCC(n2cc(-c3cnc(N)c4oc(-c5csc6cnc(F)cc56)cc34)cn2)CC1 [Example 248, 1-(4-{4-[7-amino-2-(5-fluorothieno[2,3-c]pyridin-3-yl)furo[2,3-c]pyridin-4-yl]-1H-pyrazol-1-yl}piperidin-1-yl)ethanone bis(trifluoroacetate)] | < 100 | < 100
CC(=O)N1CCC(n2cc(-c3cnc(N)c4oc(-c5c(F)ccc6cnsc56)cc34)cn2)CC1 [Example 239, 1-(4-{4-[7-amino-2-(6-fluoro-1,2-benzothiazol-7-yl)furo[2,3-c]pyridin-4-yl]-1H-pyrazol-1-yl}piperidin-1-yl)ethanone diformate salt] | 100 to 1000 | 100 to 1000
Nc1ncc(-c2cnn(C3CCN(C(=O)CCN4CCCCC4)CC3)c2)c2cc(-c3csc4cnccc34)oc12 [Example 332, 1-{4-[4-(7-amino-2-thieno[2,3-c]pyridin-3-yl-furo[2,3-c]pyridin-4-yl)-pyrazol-1-yl]-piperidin-1-yl}-3-piperidin-1-yl-propan-1-one] | < 100 | 100 to 1000
N#Cc1sc2cnccc2c1-c1cc2c(-c3cnn([C@H]4CC[C@H](O)CC4)c3)cnc(N)c2o1 [Example 270, 3-{7-amino-4-[1-(trans-4-hydroxycyclohexyl)-1H-pyrazol-4-yl]furo[2,3-c]pyridin-2-yl}thieno[2,3-c]pyridine-2-carbonitrile trifluoroacetate] | 100 to 1000 | < 100
Cc1cc(-c2cc3c(-c4cnn([C@H]5CC[C@H](O)CC5)c4)cnc(N)c3o2)c2snnc2c1 [Example 373, trans-4-{4-[7-amino-2-(5-methyl-1,2,3-benzothiadiazol-7-yl)furo[2,3-c]pyridin-4-yl]-1H-pyrazol-1-yl}cyclohexanol] | < 100 | < 100
Nc1ncc(-c2cnn([C@H]3CC[C@H](O)CC3)c2)c2cc(-c3csc4cnc(Cl)cc34)oc12 [Example 247, trans-4-{4-[7-amino-2-(5-chlorothieno[2,3-c]pyridin-3-yl)furo[2,3-c]pyridin-4-yl]-1H-pyrazol-1-yl}cyclohexanol bis(trifluoroacetate)] | 100 to 1000 | 100 to 1000
